Where a name gives a salt, the structure may show the parent alone.
Tests used:
[1] = Excitation and fluorescence emission wavelengths of the dyes (FIG. 2); format: physicochemical
Text: Looking to FIG. 2 in this regard, the excitation signal for fluorescein dye is represented at curve 30 which is an excitation signal at less than about 500 nanometers (nm). A resultant fluorescence emission from the excitation at 30 is shown at curve 32, at a wavelength of about 525 nm.
(§1) Looking to the ICG dye spectrum, an excitation curve is shown at 34, having a peak excitation wavelength at about 785 nanometers. Correspondingly, the fluorescence emission from excitation at curve 34 is represented at curve 36 with a peak emission wavelength of about 830 nanometers. Directed across FIG. 2 is a curve 38 representing the level of constant signal attenuation or absorption of about 37% resulting from passage of signal through tissue. Note that if a blood vessel is about one millimeter beneath the surface of skin, the system would perform at about 37% of the original intensity of the excitation signal and fluorescence signal for the case of ICG dye indicator. In contrast, a 37% decrease in excitation and emission signal level would result for the fluorescein dye indicator at a tissue thickness of only 0.25 mm. Since the blood vessels being targeted are at least 1 mm below the skin surface, the attenuation and associated signal loss would be much larger. Therefore, ICG dye is the preferred indicator.
When an ICG indicator within the bloodstream reaches the site of irradiation with 785 nm (laser) light, the fluorescent moiety within the ICG indicator is excited as described in connection with FIG. 2 to an elevated energy state for a brief period. As the excited moiety returns to its normal energy state, it emits light at a longer wavelength (viz., 830 nm) and the difference between the excitation wavelength (viz., 785 nm) and the fluorescence emission wavelength (viz., 830 nm) is known as the Stokes Shift. This Stokes Shift of nominally 45 nm allows the fluoresce emission to be extracted by using a interferential or other type of optical filter to reflect or otherwise attenuate all but the wavelength band of interest (viz., 820 to 840 nm).

[2] = Excitation and fluorescence signal attenuation through tissue versus depth of artery (FIG. 2); format: physicochemical; conditions: FIG. 2 curve 38
Text: as §1
Turning again to the ICG dye spectrum, note that the excitation signal 34 for ICG intersects curve 38 at a depth allowing for readily reaching blood vessels, for example within the pinna (e.g., scaphoid fossa) of the ear. Accordingly, ICG dye is usable as a circulatory tracking agent when detecting through skin, and ICG dye was the indicator elected for subsequent study.

SMILES: CC1(C)C(/C=C/C=C/C=C/C=C2\N(CCCCS(=O)(=O)O)c3ccc4ccccc4c3C2(C)C)=[N+](CCCCS(=O)(=O)[O-])c2ccc3ccccc3c21 [ICG, 2-[7-[1,1-dimethyl-3-(4-sulfobutyl)benz[e]indolin-2-ylidene]-1,3,5-heptatrienyl]-1,1-dimethyl-3-(4-sulfobutyl)-1H-benz[e]indolium hydroxide, inner salt, sodium salt]
- excitation wavelength ([1]; FIG. 2): about 785 nm
- fluorescence emission wavelength ([1]; FIG. 2): about 830 nm
- Stokes Shift ([1]; difference between excitation and fluorescence emission wavelength): ~45 nm
- tissue depth at constant signal attenuation of about 37% [2]: about one
